Test results published in the supplement of paper PMC10307832.

Experiments:
Test in all cases: relative viability (nuclei count vs DMSO), 5 days (fraction); higher = more cells survive
[1] = compound: CC(C)C[C@H](NC(=O)[C@H](CCc1ccccc1)NC(=O)CN1CCOCC1)C(=O)N[C@@H](Cc1ccccc1)C(=O)N[C@@H](CC(C)C)C(=O)[C@@]1(C)CO1 [Carfilzomib] + CC(C)C[C@H](NC(=O)[C@H](Cc1ccccc1)NC(=O)c1cnccn1)B(O)O [Bortezomib] (partner 0.002 µM)
Method in brief: (§1)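 After 5 days of treatment, lung cancer cells in 1536-well plates were fixed and stained in a single step (final 0.05% Triton X-100, 1% formaldehyde, 1 ug/ml Hoechst) and their nuclei counted on 4× images. Treatment had been applied by pin tool the day after seeding as one drug alone or as a fixed anchor-drug dose with five library-drug doses (not always all listed) in √10 steps. Relative viability is the nuclei count of treated wells divided by that of vehicle wells, and values are medians of duplicate plates.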

[2] = compound: CC(C)C[C@H](NC(=O)[C@H](CCc1ccccc1)NC(=O)CN1CCOCC1)C(=O)N[C@@H](Cc1ccccc1)C(=O)N[C@@H](CC(C)C)C(=O)[C@@]1(C)CO1 [Carfilzomib] + Cc1cc(Nc2cc(N3CCN(C)CC3)nc(Sc3ccc(NC(=O)C4CC4)cc3)n2)n[nH]1 [Tozasertib] (partner 0.1 µM)
Method in brief: as §1

[3] = compound: O=C(c1cc(Cc2n[nH]c(=O)c3ccccc23)ccc1F)N1CCN(C(=O)C2CC2)CC1 [Olaparib] + CC(C)C[C@H](NC(=O)[C@H](Cc1ccccc1)NC(=O)c1cnccn1)B(O)O [Bortezomib] (partner 0.002 µM)
Method in brief: as §1

[4] = compound: C[C@@H](Oc1cc(-c2cnn(C3CCNCC3)c2)cnc1N)c1c(Cl)ccc(F)c1Cl [Crizotinib] + Cc1cc(Nc2cc(N3CCN(C)CC3)nc(Sc3ccc(NC(=O)C4CC4)cc3)n2)n[nH]1 [Tozasertib] (partner 0.1 µM)
Method in brief: as §1

Cell Line | relative viability ([1]; first compound 0.001 µM) | relative viability ([1]; first compound 0.003162 µM) | relative viability ([1]; first compound 0.01 µM) | relative viability ([1]; first compound 0.03162 µM) | relative viability ([1]; first compound 0.1 µM) | relative viability ([2]; first compound 0.001 µM) | relative viability ([2]; first compound 0.003162 µM) | relative viability ([2]; first compound 0.01 µM) | relative viability ([2]; first compound 0.03162 µM) | relative viability ([2]; first compound 0.1 µM) | relative viability ([3]; first compound 0.08 µM) | relative viability ([3]; first compound 0.253 µM) | relative viability ([3]; first compound 2.53 µM) | relative viability ([3]; first compound 8 µM) | relative viability ([4]; first compound 0.01 µM) | relative viability ([4]; first compound 0.03162 µM) | relative viability ([4]; first compound 0.1 µM) | relative viability ([4]; first compound 0.3162 µM) | relative viability ([4]; first compound 1 µM)
NCI-H661 | 0.801 | 0.965 | 0.842 | 0.384 | 0.214 | 0.367 | 0.313 | 0.364 | 0.373 | 0.255 | 1.06 | 0.745 | 0.703 | 0.582 | 0.336 | 0.337 | 0.337 | 0.369 | 0.355
NCI-H727 | 0.72 | 0.77 | 0.795 | 0.3 | 0.147 | 0.708 | 0.754 | 0.602 | 0.438 | 0.378 | 0.844 | 0.829 | 0.709 | 0.514 |  | 0.605 | 0.612 |  | 0.634
NCI-H838 | 0.772 | 0.838 | 0.624 | 0.179 | 0.114 | 0.273 | 0.276 | 0.298 | 0.31 | 0.116 | 0.956 | 0.738 | 0.771 | 0.9 | 0.243 | 0.296 | 0.246 | 0.266 | 0.269
NCI-H1355 | 1.07 | 1.1 | 1.15 | 0.315 | 0.157 | 0.537 | 0.647 | 0.569 | 0.371 | 0.192 | 1.19 | 1.14 | 1.15 | 1.12 | 0.568 | 0.545 | 0.555 | 0.515 | 0.598
NCI-H1437 | 0.473 | 0.5 | 0.437 | 0.176 | 0.13 | 0.403 | 0.424 | 0.4 | 0.433 | 0.252 | 0.504 | 0.422 | 0.529 | 0.424 | 0.379 | 0.409 | 0.406 | 0.384 | 0.374
NCI-H1650 |  | 0.19 | 0.17 | 0.195 | 0.197 | 0.42 | 0.392 | 0.255 | 0.139 | 0.204 | 0.265 | 0.196 | 0.232 | 0.197 | 0.407 | 0.35 | 0.433 | 0.356 | 0.415
NCI-H1651 | 0.895 | 0.836 | 0.647 | 0.292 | 0.134 | 0.626 | 0.805 | 0.559 | 0.126 | 0.0943 | 0.892 | 0.901 | 0.781 | 0.451 | 0.697 | 0.7 | 0.701 | 0.723 | 0.621
NCI-H1666 | 0.987 | 0.888 | 0.771 | 0.188 | 0.218 | 0.667 | 0.551 | 0.58 | 0.523 | 0.312 | 0.771 | 0.799 | 0.633 | 0.65 | 0.547 | 0.586 | 0.665 | 0.648 | 0.539
